Each block holds one compound with its values, some of them ahead of it.
Tests used:
[1] = system: human Vγ9/Vδ2^+ T cells; experiment: Activation of human Vγ9/Vδ2+ T cells in PBMCs (CD69/CD25 upregulation, flow cytometry); assay type: cell-based; details: for EC50: PBMCs incubated overnight, CD69+ CD25+ Vγ9/Vδ2 T cells, 10pM to 100µM; for activation of Vγ9/Vδ2 T cells at the highest concentration studied: 100 µM compared with 10 µM; for activation of Vγ9/Vδ2 T cells (rank in words): across the two series 9a-d and 14a-d, in vitro
Method: General: Healthy donor peripheral blood mononuclear cells (PBMCs) were harvested as described in Morita et al. 2007. In particular, blood was obtained in the presence of a mixture of heparin and ethylene diamino tetra acetic acid (EDTA) as anticoagulants (2 U/ml heparin, 1.5 mM EDTA) from consented healthy donors (approved by the NRES Committee West Midlands-Solihull Ethical Board; REC reference 14/WM/1254). Blood was then layered on a density gradient medium, lymphoprep (Stem Cell Technologies) and Peripheral blood mononuclear cells (PBMCs) were purified by gradient centrifugation. The cells were washed 2 times with Phosphate Buffered Saline (PBS), then resuspended in RPMI-1640 media supplemented with 2 mM L-glutamine, 25 mM HEPES, 1% sodium pyruvate, 50 µg/ml penicillin/streptomycin (Invitrogen) and 10% foetal calf serum.
(§1) To assess the activation of Vy9/V62 T cells, PBMCs were seeded into U-bottom tissue culture-treated 96-well plates at a cell density of 500,000 cells per well. […] The cells were incubated at 37°C/5%CO2 overnight, and stained by flow cytometry for the following markers: viability (Zombie Aqua 1:400), CD3 (BV421 1:100), CD8 (BV650 1:200), Vγ9 (PEcy5 1:400), V62 (APC 1:200), CD69 (PE 1:25), CD25 (FITC 1:100). The samples were acquired via LSRFortessa X20 (BD Biosciences), and the data obtained were analysed using FlowJo v10 and GraphPad Prism v9 software.
Peripheral blood γδ T-cells lack appreciable levels of surface CD69 or CD25 under steady state conditions, but T-cell receptor (TCR) stimulation upregulates both T-cell activation markers within 72 hours. PAg responsive Vy9/V62 T-cells were then distinguished by TCR Yγ9 and V62 expression and assessed for the upregulation CD69 and CD25. […]

[2] = target: T1, carboxypeptidase Y (Saccharomyces cerevisiae, UniProt P00729); experiment: Carboxypeptidase Y assay (in vitro metabolism, 31P NMR); assay type: in vitro ADME; details: recombinant carboxypeptidase Y, 37 °C
T1 sequence (P00729 112-532): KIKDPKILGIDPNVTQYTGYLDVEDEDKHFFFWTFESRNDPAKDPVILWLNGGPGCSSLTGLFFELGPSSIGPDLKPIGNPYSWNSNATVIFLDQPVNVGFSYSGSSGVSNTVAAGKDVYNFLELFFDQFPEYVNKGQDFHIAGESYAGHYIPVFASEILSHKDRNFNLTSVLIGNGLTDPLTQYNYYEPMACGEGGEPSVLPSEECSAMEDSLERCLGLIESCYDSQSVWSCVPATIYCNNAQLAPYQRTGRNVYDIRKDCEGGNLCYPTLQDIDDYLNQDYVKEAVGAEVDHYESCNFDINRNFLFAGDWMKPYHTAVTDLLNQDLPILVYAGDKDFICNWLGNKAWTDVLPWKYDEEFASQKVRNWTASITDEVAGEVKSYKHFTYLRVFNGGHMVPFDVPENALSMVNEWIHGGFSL
Method: The in vitro metabolism of the phosphonodiamidate ProPAgens according to the present invention was investigated in a carboxypeptidase Y assay.
The carboxypeptidase Y assay was carried out as previously reported by Mehellou et al. 2020, McGuigan et al. 2018 and McGuigan et al. 2014. 5.0 mg of the phosphonodiamidate ProPAgen 9b was dissolved in 0.2 mL of acetone, and 0.4 mL of Trizma buffer (pH 7.4) was added followed by 0.5 mg carboxypeptidase Y in 0.2 ml Trizma buffer (pH 7.4). The phosphonodiamidate ProPAgen 9b was incubated with recombinant carboxypeptidase Y at 37 °C and monitored the reaction by ^31P-NMR for 12 h. Recorded data were processed and analysed with Bruker Topspin 2.1 software.

[3] = Human serum stability monitored by 31P NMR; assay type: in vitro ADME; details: 37 °C, 7.5 h
Method: This experiment was carried out as previously reported in Mehellou et al. 2020 and Slusarczyk, M.; Ferrari, V.; Serpi, M.; Gönczy, B.; Balzarini, J.; McGuigan, C; Symmetrical Diamidates as a Class of Phosphate Prodrugs to Deliver the 5'-Monophosphate Forms of Anticancer Nucleoside Analogues; ChemMedChem 2018, 13, 2305-2316 (hereinafter "McGuigan et al. 2018"), as well as Slusarczyk, M.; Lopez, M. H.; Balzarini, J.; Mason, M.; Jiang, W. G.; Blagden, S.; Thompson, E.; Ghazaly, E.; McGuigan, C. Application of ProTide technology to gemcitabine: a successful approach to overcome the key cancer resistance mechanisms leads to a new agent (NUC-1031) in clinical development. J. Med. Chem. 2014, 57, 1531-1542 (hereinafter "McGuigan et al. 2014").
Briefly, 5.0 mg of the phosphonodiamidate ProPAgen 9b was dissolved in a mixture of 0.05 mL of DMSO and 0.15 mL D2O. After recording the first ^31P NMR data, 0.3 mL human serum (Merck Life Sciences) was added and monitored by NMR. The experiment was run on NMR ^31P mode and scanned every half an hour for 7.5 h. The incubation temperature was 37°C. Recorded data were processed and analysed with Bruker Topspin 2.1 software.
ProPAgen 9b was incubated with human serum at 37 °C for 7.5 h and monitored by ^31P NMR spectroscopy. […]

[4] = system: CD8^+ T cells; experiment: Activation of CD8+ T cells in PBMC overnight cultures (CD69/CD25, flow cytometry); assay type: cell-based, human; details: for concentration without CD8+ T cell activation relative to Vγ9/Vδ2 T-cell activation EC50: 1 µM versus EC50; for activation of CD8+ T cells: up to a concentration of 1 µM, overnight PBMC culture
Method: as §1
Like peripheral blood γδ T-cells, peripheral blood CD8^+ T-cells lack appreciable levels of surface CD69 or CD25 under steady state conditions, but upon T-cell receptor (TCR) stimulation upregulate both T-cell activation markers within 72 hours. PAg responsive CD8 T-cells were then distinguished by TCR CD8 expression and assessed for the upregulation CD69 and CD25.

[5] = system: T24 urinary bladder carcinoma cells; experiment: Europium-based (DELFIA) cytotoxicity assay: lysis of drug-sensitized T24 cells by expanded Vγ9/Vδ2 T cells; assay type: cell-based, Human; details: 10 nM ProPAgen, 2 h pretreatment, effector:target 80:1, compared with 10 µM Zoledronate
Method: Human T24 urinary bladder carcinoma cell lines were cultured in PBS for 2 h at 37°C/5% CO2 without ProPAgens (i.e. untreated), containing 10 µM zoledronate (i.e. the clinically used small molecule drug) or the indicated HMBP phosphonodiamidate ProPAgens of the present invention, i.e. ProPAgen 9d at a concentration of 10nM, and ProPAgen 14d at a concentration of 10nM. A positive control for cell death (target cells incubated with 10% v/v DELFIA lysis buffer) and media-only treated control (no drug) were also included. The cells were then washed 3 times at 600 x g for 5 min in PBS to remove any excess drug and incubated in PBS with BATDA labelling agent (used at 1µl per ml) for 20 min at 37°C as before.
In the meantime, ex vivo expanded Vy9/V62 T cells, i.e. Vy9/V62 T cells that have been expanded with 5µM Zoledronate and 100U/ml IL2 over a period of 14 days, were thawed, counted and resuspended to a cell concentration of 4 x 10^6 cells/ml. […]
The level of killing of T24 cells was then measured via time-resolved fluorescence using a PHERAstar microplate reader (BMG Labtech). Specific lysis (% killing of T24 cells) was calculated as follows: [(experimental release - spontaneous release)/(maximal release - spontaneous release)] x 100. The data were processed and analyzed using Microsoft Excel and GraphPad Prism v9 software. […]

[6] = system: Vγ9/Vδ2 T cells; details: previously reported potencies (Hsiao 2014; Reichenberg 2003); cited from earlier work

Structure (SMILES): C/C(=C\CC(F)(F)P(=O)(N[C@@H](C)C(=O)OC(C)(C)C)N[C@@H](C)C(=O)OC(C)(C)C)CO [ProPAgen 9c, Di-tert-butyl 2,2'-((((E)-1,1-difluoro-5-hydroxy-4-methylpent-3-en-1-yl)phosphoryl)bis(azanediyl))(2S,2'S)-dipropionate]
- EC50 [1]: 1500 nM

Structure (SMILES): C/C(=C\CCP(=O)(N[C@@H](C)C(=O)OC(C)C)N[C@@H](C)C(=O)OC(C)C)CO [ProPAgen 14b, Diisopropyl 2,2'-((((E)-5-hydroxy-4-methylpent-3-en-1-yl)phosphoryl)bis(az-anediyl))-(2S,2'S)-dipropionate]
- EC50 [1]: 87 nM

Structure (SMILES): COC(=O)[C@H](C)NP(=O)(N[C@@H](C)C(=O)OC)C(F)(F)C/C=C(\C)CO [ProPAgen 9a, Dimethyl 2,2'-((((E)-1,1-difluoro-5-hydroxy-4-methylpent-3-en-1-yl)phosphor-yl)bis(azanediyl))(2S,2'S)-dipropionate]
- EC50 [1]: 191 nM

Structure (SMILES): C/C(=C\CC(F)(F)P(=O)(N[C@@H](C)C(=O)OC(C)C)N[C@@H](C)C(=O)OC(C)C)CO [ProPAgen 9b, Diisopropyl 2,2'-((((E)-1,1-difluoro-5-hydroxy-4-methylpent-3-en-1-yl)phosphor-yl)bis-(azanediyl))(2S,2'S)-dipropionate]
- time to appearance of three new 31P NMR peaks (metabolite 17) ([2]; Trizma buffer pH 7.4): ≤ 0.5 h
- 31P NMR peaks of parent prodrug after incubation ([2]; within 6.5 h): those of 9b were the minor
- half-life [3]: > 7.5 h
- EC50 ([1]; Homo sapiens, T-cell): 167 nM

Structure (SMILES): C/C(=C\CCP(=O)(N[C@@H](C)C(=O)OC(C)(C)C)N[C@@H](C)C(=O)OC(C)(C)C)CO [ProPAgen 14c, Di-tert-butyl 2,2'-((((E)-5-hydroxy-4-methylpent-3-en-1-yl)phosphoryl)bis(az-ane-diyl))-(2S,2'S)-dipropionate]
- EC50 [1]: 6100 nM

Structure (SMILES): C/C(=C\CCP(=O)(N[C@@H](C)C(=O)OCc1ccccc1)N[C@@H](C)C(=O)OCc1ccccc1)CO [ProPAgen 14d, Dibenzyl 2,2'-((((E)-5-hydroxy-4-methylpent-3-en-1-yl)phosphoryl)bis(azane-diyl))-(2S, 2'S)-dipropionate]
- concentration without CD8+ T cell activation relative to Vγ9/Vδ2 T-cell activation EC50 [4]: approx. 100,000 times
- activation of CD8+ T cells [4]: did not exhibit activation
- sensitizing effects (specific lysis of T24 cells by Vγ9/Vδ2 T-cells) [5]: much more potent
- activation of Vγ9/Vδ2 T cells at the highest concentration studied [1]: less than that achieved with 10 µM
- activation of Vγ9/Vδ2 T cells (rank in words) [1]: most potent activation

- EC50 [1]: 181 nM
Structure (SMILES): C/C(=C\COP(=O)(O)OP(=O)(O)O)CO [HMBPP, (E)-4-hydroxy-3-methylbut-2-enyl pyrophosphate, reference compound]
- EC50 [6]: 0.06 to 0.5 nM

- EC50 ([1]; Homo sapiens, T-cell): 18500 nM
Structure (SMILES): O=P(O)(O)C(O)(Cn1ccnc1)P(=O)(O)O [zoledronate, reference compound]
- EC50 [6]: 3 to 500 nM

- concentration without CD8+ T cell activation relative to Vγ9/Vδ2 T-cell activation EC50 [4]: approx. 100,000 times
Structure (SMILES): C/C(=C\CC(F)(F)P(=O)(N[C@@H](C)C(=O)OCc1ccccc1)N[C@@H](C)C(=O)OCc1ccccc1)CO [ProPAgen 9d, Dibenzyl 2,2'-((((E)-1,1-difluoro-5-hydroxy-4-methylpent-3-en-1-yl)phosphoryl)-bis(azanediyl))(2S,2'S)-dipropionate]
- activation of CD8+ T cells [4]: did not exhibit activation
- sensitizing effects (specific lysis of T24 cells by Vγ9/Vδ2 T-cells) [5]: much more potent
- activation of Vγ9/Vδ2 T cells at the highest concentration studied [1]: less than that achieved with 10 µM
- activation of Vγ9/Vδ2 T cells (rank in words) [1]: most potent activation
